Where only a bound is given, the exact number is not on record here.

Sequence of RAC-alpha serine/threonine-protein kinase (P31749 whole entry): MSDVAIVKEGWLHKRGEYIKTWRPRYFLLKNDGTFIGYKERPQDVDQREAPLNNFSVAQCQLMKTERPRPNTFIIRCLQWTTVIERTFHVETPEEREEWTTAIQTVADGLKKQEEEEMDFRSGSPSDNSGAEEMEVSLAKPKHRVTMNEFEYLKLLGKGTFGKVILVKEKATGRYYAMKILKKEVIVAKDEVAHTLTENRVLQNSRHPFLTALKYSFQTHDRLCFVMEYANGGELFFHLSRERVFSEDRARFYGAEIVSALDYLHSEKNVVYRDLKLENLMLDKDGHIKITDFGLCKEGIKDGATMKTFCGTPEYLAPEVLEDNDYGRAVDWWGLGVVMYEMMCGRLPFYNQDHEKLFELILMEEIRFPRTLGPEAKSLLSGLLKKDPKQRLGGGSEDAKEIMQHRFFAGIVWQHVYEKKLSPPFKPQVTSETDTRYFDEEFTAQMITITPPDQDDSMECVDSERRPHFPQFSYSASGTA

This assay has as its target RAC-alpha serine/threonine-protein kinase (Homo sapiens, UniProt P31749). Description: Inhibition of PI3K-mediated Akt phosphorylation at Ser 473 in human U87MG cells after 2 hrs by alphascreen assay.
By IC50 is commonly meant the concentration needed to halve the response being measured. Higher therefore signals weaker potency. `CC(=O)Nc1cn2nc(-c3cnc(Cl)c(NS(=O)(=O)c4ccc(F)cc4)c3)ccc2n1` showed a 50% inhibitory concentration (IC50) of 13 nM.
In the case of `Nc1cn2nc(-c3cnc(Cl)c(NS(=O)(=O)c4ccc(F)cc4)c3)ccc2n1` it was 415 nM.
Then `CC(=O)Nc1cn2cc(-c3cnc(Cl)c(NS(=O)(=O)c4ccc(F)cc4)c3)ccc2n1`, with 118 nM.
In the case of `Nc1cn2cc(-c3cnc(Cl)c(NS(=O)(=O)c4ccc(F)cc4)c3)ccc2n1` it was greater than 12000 nM; in that of `O=S(=O)(Nc1cc(-c2ccc3nccn3c2)cnc1Cl)c1ccc(F)cc1`, 574 nM; in that of `CC(=O)Nc1nc2ccc(-c3cnc(Cl)c(NS(=O)(=O)c4ccc(F)cc4)c3)cc2[nH]1`, 335 nM.
In turn, `Nc1nc2ccc(-c3cnc(Cl)c(NS(=O)(=O)c4ccc(F)cc4)c3)cc2[nH]1` displayed an IC50 greater than 12000 nM.
In the case of `O=S(=O)(Nc1cc(-c2ccc3nc[nH]c3c2)cnc1Cl)c1ccc(F)cc1` it was greater than 12000 nM; in that of `CC(=O)Nc1nc2ccc(-c3cnc(Cl)c(NS(=O)(=O)c4ccc(F)cc4)c3)cc2o1`, 1100 nM.
Then `Nc1nc2ccc(-c3cnc(Cl)c(NS(=O)(=O)c4ccc(F)cc4)c3)cc2o1`, with 101 nM.
`O=S(=O)(Nc1cc(-c2ccc3ncoc3c2)cnc1Cl)c1ccc(F)cc1`: the IC50 is greater than 12000 nM.
The compound `O=S(=O)(Nc1cc(-c2ccc3nncn3c2)cnc1Cl)c1ccc(F)cc1` gave a half-maximal inhibitory concentration (IC50) greater than 12000 nM.
In turn, `O=S(=O)(Nc1cc(-c2ccc3sncc3c2)cnc1Cl)c1ccc(F)cc1` returned an IC50 greater than 12000 nM.

The values are drawn from BindingDB's records for doi:10.1021/jm2004442 (Amgen, 2011).
